Laboratory results taken from ChEMBL document CHEMBL4715878 (J Med Chem, 2020).
Active and inactive are the calls of the source. No cut-off for these calls is given here.

How the values were obtained:
MCF7 [1] = assay: Potency index, ratio of lapatinib IC50 to test compound IC50 for antiproliferative activity against human MCF7 cells; format: functional
BT-474 [2] = assay: Induction of apoptosis in human BT474 cells assessed as increase in early apoptotic cells at 0.5 to 5 uM incubated for 72 hrs by Annexin V-FITC/PI staining based flow cytometry analysis relative to control; format: functional; conditions: dose 0.5-5 µM
MDA-MB-231 [3] = assay: Antiproliferative activity against human MDA-MB-231 cells assessed as reduction in cell viability incubated for 72 hrs by WST8 assay; format: functional, cell-based; conditions: MDA-MB-231, 72 h
[4] = Selectivity ratio of IC50 for antiproliferative activity against human AU565 cells to IC50 for antiproliferative activity against human BT474 cells; format: functional
BT-474 [5] = assay: Induction of apoptosis in human BT474 cells assessed as increase in late apoptotic cells at 0.5 to 5 uM incubated for 72 hrs by Annexin V-FITC/PI staining based flow cytometry analysis relative to control; format: functional; conditions: dose 0.5-5 µM
BT-474 [6] = assay: Antiproliferative activity against human BT474 cells assessed as reduction in cell viability incubated for 72 hrs by WST8 assay; format: functional, cell-based; conditions: BT-474, 72 h
AU565 = assay: Antiproliferative activity against human AU565 cells assessed as reduction in cell viability incubated for 72 hrs by WST8 assay; format: functional, cell-based; conditions: AU565, 72 h
BT-474 [7] = assay: Induction of apoptosis in human BT474 cells assessed as increase in early apoptotic cells incubated for 72 hrs by Annexin V-FITC/PI staining based flow cytometry analysis; format: functional, cell-based; conditions: dose 0.1-5 µM
MCF7 [8] = assay: Antiproliferative activity against human MCF7 cells assessed as reduction in cell viability incubated for 72 hrs by WST8 assay; format: functional, cell-based; conditions: MCF7, 72 h
in vitro [9] = conditions: CD-1, mouse, liver microsomes
in vitro [10] = conditions: CD-1, mouse, liver microsomes; remark: listed apart in the source
Description: Metabolic stability in CD-1 mouse liver microsomes assessed as parent compound remaining at 100 uM measured after 60 mins in presence of NADPH by LC-MS/MS analysis

[11] = target: T1, Receptor tyrosine-protein kinase erbB-2 (Homo sapiens, UniProt P04626); assay: Inhibition of HER2 in human BT474 cells assessed as reduction in Akt phosphorylation at 0.1 IC50 incubated for 24 to 48 hrs by western blot analysis; format: cell-based; conditions: BT-474, time 24-48 hrs
T1 sequence (P04626 whole entry): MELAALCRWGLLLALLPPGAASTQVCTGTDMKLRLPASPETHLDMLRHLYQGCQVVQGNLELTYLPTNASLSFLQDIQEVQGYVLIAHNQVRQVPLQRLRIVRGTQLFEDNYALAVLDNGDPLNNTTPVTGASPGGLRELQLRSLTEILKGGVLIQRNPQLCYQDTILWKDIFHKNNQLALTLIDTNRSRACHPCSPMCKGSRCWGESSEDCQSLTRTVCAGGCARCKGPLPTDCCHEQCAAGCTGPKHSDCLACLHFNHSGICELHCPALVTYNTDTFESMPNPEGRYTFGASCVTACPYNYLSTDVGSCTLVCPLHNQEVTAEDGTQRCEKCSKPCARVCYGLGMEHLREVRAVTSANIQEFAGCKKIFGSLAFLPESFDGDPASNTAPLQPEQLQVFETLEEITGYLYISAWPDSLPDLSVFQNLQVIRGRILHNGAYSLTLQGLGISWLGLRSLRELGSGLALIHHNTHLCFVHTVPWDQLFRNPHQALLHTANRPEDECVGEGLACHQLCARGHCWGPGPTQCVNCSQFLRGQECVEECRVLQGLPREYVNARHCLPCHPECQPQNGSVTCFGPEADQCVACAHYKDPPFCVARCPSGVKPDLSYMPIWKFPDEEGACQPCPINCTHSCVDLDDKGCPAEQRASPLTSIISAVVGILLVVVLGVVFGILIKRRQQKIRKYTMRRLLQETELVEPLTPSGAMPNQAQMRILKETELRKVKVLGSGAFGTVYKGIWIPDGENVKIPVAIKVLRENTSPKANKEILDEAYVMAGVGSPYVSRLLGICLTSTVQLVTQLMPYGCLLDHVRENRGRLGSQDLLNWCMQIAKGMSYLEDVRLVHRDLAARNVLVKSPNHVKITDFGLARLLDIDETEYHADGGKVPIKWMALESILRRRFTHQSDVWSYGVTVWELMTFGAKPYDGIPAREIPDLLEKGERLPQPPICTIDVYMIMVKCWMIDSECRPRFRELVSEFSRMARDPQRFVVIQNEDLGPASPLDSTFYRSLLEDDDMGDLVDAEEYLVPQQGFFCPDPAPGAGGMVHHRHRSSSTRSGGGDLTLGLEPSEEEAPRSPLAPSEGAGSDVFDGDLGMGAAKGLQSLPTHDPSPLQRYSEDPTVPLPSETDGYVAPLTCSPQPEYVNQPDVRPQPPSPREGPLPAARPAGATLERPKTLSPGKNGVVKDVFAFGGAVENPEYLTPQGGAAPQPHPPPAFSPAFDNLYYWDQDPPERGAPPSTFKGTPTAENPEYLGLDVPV

[12] = target: T1, Receptor tyrosine-protein kinase erbB-2; conditions: Sf9, human, 0.5 h
[13] = target: Platelet-derived growth factor receptor alpha (Homo sapiens, UniProt P16234); assay: Effect on human recombinant N-terminal GST-tagged PDGFRalpha (550 to end residues) expressed in baculovirus infected Sf9 insect cells in presence of substrate and [gamma-32ATP] at 10 uM incubated for 30 mins by scintillation counting based radiometry assay relative to control; conditions: 0.5 h, read-out: Activity
Sequence of Platelet-derived growth factor receptor alpha (P16234 whole entry): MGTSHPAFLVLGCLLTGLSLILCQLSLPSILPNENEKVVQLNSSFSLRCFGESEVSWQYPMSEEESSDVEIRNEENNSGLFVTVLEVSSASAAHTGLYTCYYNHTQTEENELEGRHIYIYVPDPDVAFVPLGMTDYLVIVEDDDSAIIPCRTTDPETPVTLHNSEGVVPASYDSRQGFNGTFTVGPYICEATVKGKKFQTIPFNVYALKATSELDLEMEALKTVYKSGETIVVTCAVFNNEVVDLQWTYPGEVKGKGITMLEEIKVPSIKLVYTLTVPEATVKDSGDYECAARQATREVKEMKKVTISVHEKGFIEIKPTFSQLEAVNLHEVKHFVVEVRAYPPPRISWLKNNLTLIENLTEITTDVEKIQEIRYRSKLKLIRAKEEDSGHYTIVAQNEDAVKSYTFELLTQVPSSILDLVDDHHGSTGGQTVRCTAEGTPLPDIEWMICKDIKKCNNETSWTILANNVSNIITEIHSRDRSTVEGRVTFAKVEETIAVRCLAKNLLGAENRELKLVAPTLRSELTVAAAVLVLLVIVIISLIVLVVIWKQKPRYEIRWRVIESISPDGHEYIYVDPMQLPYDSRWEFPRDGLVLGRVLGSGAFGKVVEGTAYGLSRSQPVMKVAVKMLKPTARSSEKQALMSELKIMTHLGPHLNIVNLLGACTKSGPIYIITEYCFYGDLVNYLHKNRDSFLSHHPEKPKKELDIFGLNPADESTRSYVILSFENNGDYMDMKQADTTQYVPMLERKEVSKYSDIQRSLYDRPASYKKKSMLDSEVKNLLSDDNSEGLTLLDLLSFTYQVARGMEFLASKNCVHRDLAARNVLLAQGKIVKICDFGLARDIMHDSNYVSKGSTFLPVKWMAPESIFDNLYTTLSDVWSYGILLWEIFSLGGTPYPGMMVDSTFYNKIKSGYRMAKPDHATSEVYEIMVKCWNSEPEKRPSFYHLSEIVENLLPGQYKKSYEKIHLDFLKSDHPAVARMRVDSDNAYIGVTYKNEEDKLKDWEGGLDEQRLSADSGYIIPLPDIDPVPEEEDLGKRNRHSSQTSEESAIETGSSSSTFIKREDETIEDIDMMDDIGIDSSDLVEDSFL

[14] = target: T1, Receptor tyrosine-protein kinase erbB-2; assay: Inhibition of HER2 in human BT474 cells assessed as reduction in Erk1/2 phosphorylation at 0.5 IC50 incubated for 24 to 48 hrs by western blot analysis; format: cell-based; conditions: BT-474, time 24-48 hrs
BT-474 [15] = assay: Down regulation of HER2 expression in human BT474 cells at 0.5 IC50 after 24 to 48 hrs by Western blot analysis; format: functional, cell-based; conditions: time 24-48 hrs
in vitro [16] = conditions: CD-1, mouse, liver microsomes; remark: listed apart in the source
Description: Metabolic stability in CD-1 mouse liver microsomes assessed as parent compound remaining at 100 uM measured after 60 mins by LC-MS/MS analysis

[17] = Antiproliferative activity against human BC assessed as lethality at 10 uM after 48 hrs by SRB assay relative to control; format: functional
MDA-MB-468 [18] = assay: Antiproliferative activity against human MDA-MB-468 cells assessed as cell growth inhibition after 48 hrs by SRB assay; format: functional
BT-474 [19] = assay: Antitumor activity against human BT474 cells xenografted in athymic nude mouse assessed as appearance of tumor fibrosis at 50 mg/kg, po administered via oral gavage for 5 times in a week for 55 days measured post-last dose by H and E staining based immunohistochemical analysis; format: functional, organism-based; conditions: time 55.0 day
MDA-MB-468 [20] = assay: Antiproliferative activity against human MDA-MB-468 cells assessed as lethality at 10 uM after 48 hrs by SRB assay relative to control; format: functional
BT-474 [21] = assay: Antitumor activity against human BT474 cells xenografted in athymic nude mouse assessed as reduction in metastasis of cells at 50 mg/kg, po administered via oral gavage for 5 times per week for 55 days measured post-last dose; format: functional, organism-based; conditions: time 55.0 day
BT-474 [22] = assay: Antitumor activity against human BT474 cells xenografted in athymic nude mouse assessed as tumor weight at 50 mg/kg, po administered via oral gavage for 5 times in a week for 55 days measured post last dose (reference value: 2.046 g); format: functional; conditions: time 55 day
MCF7 [23] = assay: Antiproliferative activity against human MCF7 cells assessed as lethality at 10 uM after 48 hrs by SRB assay relative to control; format: functional
in vitro [24] = conditions: CD-1, mouse, liver microsomes; remark: listed apart in the source
[25] = target: T1, Receptor tyrosine-protein kinase erbB-2; assay: Inhibition of HER2 in human BT474 cells assessed as reduction in Akt phosphorylation at 0.1 IC50 after 24 to 48 hrs by Western blot analysis; format: cell-based; conditions: BT-474, time 24-48 hrs
BT-474 [26] = assay: Antitumor activity against human BT474 cells xenografted in athymic nude mouse assessed as tumor growth inhibition at 50 mg/kg, po administered via oral gavage for 5 times in a week for 55 days measured post last dose; format: functional, organism-based; conditions: time 55.0 day
[27] = test system: Panel NCI-60 (60 carcinoma cell lines); assay: Antiproliferative activity against human NCI60 cells assessed as lethality at 10 uM after 48 hrs by SRB assay relative to control; format: functional
[28] = target: Receptor tyrosine-protein kinase erbB-4 (Homo sapiens, UniProt Q15303); assay: Effect on human recombinant N-terminal GST-tagged HER4 (682 to 993) expressed in baculovirus infected Sf9 insect cells in presence of substrate and [gamma-32ATP] at 10 uM incubated for 30 mins by scintillation counting based radiometry assay relative to control; conditions: 0.5 h, read-out: Activity
Sequence of Receptor tyrosine-protein kinase erbB-4 (Q15303 whole entry): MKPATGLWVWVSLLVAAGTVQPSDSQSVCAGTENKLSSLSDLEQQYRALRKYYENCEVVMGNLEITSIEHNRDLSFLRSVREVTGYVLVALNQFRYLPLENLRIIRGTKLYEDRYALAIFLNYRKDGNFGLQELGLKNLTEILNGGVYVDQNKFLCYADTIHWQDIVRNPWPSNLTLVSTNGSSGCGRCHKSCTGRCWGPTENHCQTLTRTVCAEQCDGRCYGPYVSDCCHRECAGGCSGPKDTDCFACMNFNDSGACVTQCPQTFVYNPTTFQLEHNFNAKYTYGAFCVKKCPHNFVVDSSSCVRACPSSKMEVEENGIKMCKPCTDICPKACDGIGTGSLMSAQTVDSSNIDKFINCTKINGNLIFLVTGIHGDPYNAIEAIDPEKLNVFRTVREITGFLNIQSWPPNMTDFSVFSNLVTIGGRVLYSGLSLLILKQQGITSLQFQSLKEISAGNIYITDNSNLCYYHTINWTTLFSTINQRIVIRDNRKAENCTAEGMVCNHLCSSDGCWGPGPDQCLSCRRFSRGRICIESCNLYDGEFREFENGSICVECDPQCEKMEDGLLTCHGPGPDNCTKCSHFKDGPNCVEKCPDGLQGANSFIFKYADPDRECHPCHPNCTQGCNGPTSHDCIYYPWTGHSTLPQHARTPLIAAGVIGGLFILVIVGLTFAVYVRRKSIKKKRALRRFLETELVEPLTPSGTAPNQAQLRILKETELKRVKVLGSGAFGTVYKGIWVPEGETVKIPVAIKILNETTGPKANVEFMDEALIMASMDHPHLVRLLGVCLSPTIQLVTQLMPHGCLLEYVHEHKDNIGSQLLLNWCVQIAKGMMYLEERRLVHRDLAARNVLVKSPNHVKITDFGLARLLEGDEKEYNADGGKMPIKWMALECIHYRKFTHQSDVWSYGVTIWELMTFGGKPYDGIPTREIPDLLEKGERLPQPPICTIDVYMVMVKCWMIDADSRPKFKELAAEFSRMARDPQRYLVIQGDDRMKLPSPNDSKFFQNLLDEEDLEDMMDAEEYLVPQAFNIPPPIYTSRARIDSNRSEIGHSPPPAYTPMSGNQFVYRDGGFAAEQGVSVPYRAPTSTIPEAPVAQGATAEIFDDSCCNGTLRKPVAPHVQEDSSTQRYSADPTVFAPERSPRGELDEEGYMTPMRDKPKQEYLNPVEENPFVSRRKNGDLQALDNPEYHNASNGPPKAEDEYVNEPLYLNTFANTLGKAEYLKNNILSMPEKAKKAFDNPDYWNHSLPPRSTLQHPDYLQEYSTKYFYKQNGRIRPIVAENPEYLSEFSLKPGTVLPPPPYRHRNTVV

BT-474 [29] = assay: Antitumor activity against human BT474 cells xenografted in athymic nude mouse assessed as suppression of tumor growth by measuring decrease in number of Ki67 positive cells at 50 mg/kg, po administered via oral gavage for 5 times per week for 55 days measured post-last dose by Ki67-staining based immunohistochemistry; format: functional, organism-based; conditions: time 55.0 day
BT-474 [30] = assay: Down regulation of HER2 expression in human BT474 cells at 0.1 IC50 after 24 to 48 hrs by Western blot analysis; format: functional, cell-based; conditions: time 24-48 hrs
[31] = target: T1, Receptor tyrosine-protein kinase erbB-2; assay: Inhibition of HER2 in human BT474 cells assessed as reduction in Akt phosphorylation at 0.5 IC50 incubated for 24 to 48 hrs by western blot analysis; format: cell-based; conditions: BT-474, time 24-48 hrs
[32] = target: T1, Receptor tyrosine-protein kinase erbB-2; assay: Inhibition of HER2 (unknown origin) in presence of substrate incubated for 30 mins by ADP-Glo assay
[33] = target: Epidermal growth factor receptor (Homo sapiens, UniProt P00533); conditions: 0.5 h
Sequence of Epidermal growth factor receptor (P00533 whole entry): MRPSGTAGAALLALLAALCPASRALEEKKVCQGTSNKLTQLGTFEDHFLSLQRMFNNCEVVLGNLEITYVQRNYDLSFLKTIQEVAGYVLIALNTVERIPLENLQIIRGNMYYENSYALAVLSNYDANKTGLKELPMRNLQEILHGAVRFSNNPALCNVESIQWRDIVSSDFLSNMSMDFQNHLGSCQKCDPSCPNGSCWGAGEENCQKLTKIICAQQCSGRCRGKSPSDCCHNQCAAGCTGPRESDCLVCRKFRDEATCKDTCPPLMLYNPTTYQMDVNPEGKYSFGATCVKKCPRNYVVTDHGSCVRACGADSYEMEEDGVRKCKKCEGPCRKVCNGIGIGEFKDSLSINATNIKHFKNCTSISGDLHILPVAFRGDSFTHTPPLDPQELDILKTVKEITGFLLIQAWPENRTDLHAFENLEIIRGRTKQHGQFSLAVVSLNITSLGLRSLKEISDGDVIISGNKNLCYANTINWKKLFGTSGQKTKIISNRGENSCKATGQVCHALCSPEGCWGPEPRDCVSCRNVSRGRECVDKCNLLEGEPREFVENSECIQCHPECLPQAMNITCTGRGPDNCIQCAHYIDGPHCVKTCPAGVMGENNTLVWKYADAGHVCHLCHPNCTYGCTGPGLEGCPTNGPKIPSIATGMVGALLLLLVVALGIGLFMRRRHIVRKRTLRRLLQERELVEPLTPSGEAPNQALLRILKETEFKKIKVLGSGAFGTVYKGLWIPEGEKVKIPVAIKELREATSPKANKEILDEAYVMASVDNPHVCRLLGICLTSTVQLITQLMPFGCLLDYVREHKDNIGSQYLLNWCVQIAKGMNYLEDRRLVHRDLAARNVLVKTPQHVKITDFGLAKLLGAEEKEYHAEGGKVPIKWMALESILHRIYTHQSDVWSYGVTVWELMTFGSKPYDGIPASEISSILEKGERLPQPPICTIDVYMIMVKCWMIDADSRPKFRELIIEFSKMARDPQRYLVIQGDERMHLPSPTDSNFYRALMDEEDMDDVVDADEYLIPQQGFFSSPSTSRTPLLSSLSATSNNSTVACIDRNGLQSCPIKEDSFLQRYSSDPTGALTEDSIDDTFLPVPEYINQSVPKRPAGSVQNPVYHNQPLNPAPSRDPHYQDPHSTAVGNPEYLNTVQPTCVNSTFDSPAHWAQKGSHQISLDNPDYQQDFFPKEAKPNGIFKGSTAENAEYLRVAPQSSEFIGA
Description: Effect on human EGFR in presence of substrate and [gamma-32ATP] at 10 uM incubated for 30 mins by scintillation counting based radiometry assay relative to control

[34] = Antiproliferative activity against human BC assessed as cell growth inhibition at 10 uM after 48 hrs by SRB assay relative to control; format: functional; conditions: read-out: GI
BT-474 [35] = assay: Antitumor activity against human BT474 cells xenografted in athymic nude mouse assessed as tumor necrosis at 50 mg/kg, po administered via oral gavage for 5 times in a week for 55 days measured post-last dose by H and E staining based immunohistochemical analysis; format: functional, organism-based; conditions: time 55.0 day
[36] = Antiproliferative activity against human MDA-MB-231 cells assessed as lethality at 10 uM after 48 hrs by SRB assay relative to control; format: functional, MDA-MB-23
[37] = test system: Panel NCI-60 (60 carcinoma cell lines); assay: Antiproliferative activity against human NCI60 cells assessed as mean cell growth at 10 uM after 48 hrs by SRB assay relative to control; format: functional
[38] = target: T1, Receptor tyrosine-protein kinase erbB-2; assay: Inhibition of HER2 in human BT474 cells assessed as reduction in Akt phosphorylation at 0.5 IC50 after 24 to 48 hrs by Western blot analysis; format: cell-based; conditions: BT-474, time 24-48 hrs
[39] = target: T1, Receptor tyrosine-protein kinase erbB-2; assay: Inhibition of wild-type HER2 (unknown origin) at 0.5 nM in presence of substrate incubated for 30 mins by ADP-Glo assay relative to control
MDA-MB-468 [40] = assay: Antiproliferative activity against human MDA-MB-468 cells assessed as cell growth inhibition at 10 uM after 48 hrs by SRB assay relative to control; format: functional; conditions: read-out: GI
in vitro [41] = conditions: CD-1, mouse, microsomes
[42] = target: T1, Receptor tyrosine-protein kinase erbB-2; assay: Inhibition of HER2 in human BT474 cells assessed as reduction in Erk1/2 phosphorylation at 0.1 IC50 incubated for 24 to 48 hrs by western blot analysis; format: cell-based; conditions: BT-474, time 24-48 hrs
BT-474 [43] = assay: Antitumor activity against human BT474 cells xenografted in athymic nude mouse assessed as inflammation in tumors at 50 mg/kg, po administered via oral gavage for 5 times per week for 55 days measured post-last dose by H and E staining based immunohistochemical analysis; format: functional, organism-based; conditions: time 55.0 day
MCF7 [44] = assay: Induction of apoptosis in human MCF7 cells assessed as accumulation in early apoptotic cells at 5 uM incubated for 72 hrs by Annexin V-FITC/PI staining based flow cytometry analysis; format: functional, cell-based
MDA-MB-231 [45] = assay: Induction of apoptosis in human MDA-MB-231 cells assessed as accumulation in early apoptotic cells at 5 uM incubated for 72 hrs by Annexin V-FITC/PI staining based flow cytometry analysis; format: functional, cell-based
MCF7 [46] = assay: Induction of apoptosis in human MCF7 cells assessed as accumulation in late apoptotic cells at 5 uM incubated for 72 hrs by Annexin V-FITC/PI staining based flow cytometry analysis; format: functional, cell-based
BT-474 [47] = assay: Induction of apoptosis in human BT474 cells assessed as increase in early apoptotic cells at 0.2 uM incubated for 72 hrs by Annexin V-FITC/PI staining based flow cytometry analysis relative to control; format: functional
MDA-MB-231 [48] = assay: Induction of apoptosis in human MDA-MB-231 cells assessed as accumulation in late apoptotic cells at 5 uM incubated for 72 hrs by Annexin V-FITC/PI staining based flow cytometry analysis; format: functional, cell-based

SMILES: CN(C)CC(=O)Nc1ccc2ncnc(Nc3ccc(Oc4cccc(F)c4)c(Cl)c3)c2c1
- Ratio IC50 (MCF7 [1]): <=20
- fold change (FC) (BT-474 [2]): <=6
- IC50 (MDA-MB-231 [3]): 6.55 µM
- Ratio IC50 [4]: 6
- Activity (BT-474 [5]): inactive
- IC50 (BT-474 [6]): 0.107 µM
- IC50 (AU565): 0.663 µM
- Activity (BT-474 [7]): Dose-dependent effect
- IC50 (MCF7 [8]): 0.321 µM

SMILES: O=C(Nc1ccc2ncnc(Nc3ccc(Oc4cccc(F)c4)c(Cl)c3)c2c1)c1ccc(CNCCO)cc1
- CLint scaled at 1 h, 100 µM (in vitro [9]): < 38 mL/min/kg
- remaining at 1 h, 100 µM (in vitro [10]): 103%
- inhibition [11]: Active
- activity at 10 µM [12]: -92%
- activity at 10 µM [13]: -4%
- inhibition [14]: Active
- Activity (BT-474 [15]): Active
- remaining at 1 h, 100 µM (in vitro [16]): 100%
- Activity [17]: <=78.7%
- fold change (FC) (BT-474 [2]): <=6
- IC50 (MDA-MB-231 [3]): 5.23 µM
- GI50 (MDA-MB-468 [18]): 0.6 µM
- Activity (BT-474 [19]): Active
- Activity (MDA-MB-468 [20]): 18%
- Activity (BT-474 [21]): Active
- Activity (BT-474 [22]): 0.572 g
- Activity (MCF7 [23]): 18%
- half-life at 1 h, 100 µM (in vitro [24]): > 2.42 h
- inhibition [25]: Active
- TGI (BT-474 [26]): Active
- Activity [27]: 1.3%
- activity at 10 µM [28]: -98%
- Activity (BT-474 [5]): inactive
- Activity (BT-474 [29]): Active
- Activity (BT-474 [30]): Active
- inhibition [31]: Active
- IC50 [32]: 0.012 µM
- IC50 (BT-474 [6]): 0.204 µM
- activity at 10 µM [33]: -70%
- inhibition of growth at 10 µM [34]: ≤ 78.7%
- Activity (BT-474 [35]): Active
- Activity [36]: 18%
- IC50 (AU565): 0.205 µM
- Activity [37]: 11.85%
- Activity (BT-474 [7]): Dose-dependent effect
- inhibition [38]: Active
- inhibition [39]: 3%
- inhibition of growth at 10 µM (MDA-MB-468 [40]): 18.8%
- microsomal CLint at 1 h, 100 µM (in vitro [41]): < 9.6 µL/min/mg
- inhibition [42]: Active
- Activity (BT-474 [43]): Active
- IC50 (MCF7 [8]): 5.64 µM

SMILES: CN1CCN(CC(=O)Nc2ccc3ncnc(Nc4ccc(OCc5cccc(F)c5)c(Cl)c4)c3c2)CC1
- Ratio IC50 (MCF7 [1]): <=20
- fold change (FC) (BT-474 [2]): 10
- IC50 (MDA-MB-231 [3]): 1.36 µM
- Activity (MCF7 [44]): inactive
- fold change (FC) (BT-474 [5]): 2
- IC50 [32]: 0.0061 µM
- IC50 (BT-474 [6]): 0.133 µM
- Activity (MDA-MB-231 [45]): inactive
- Activity (MCF7 [46]): inactive
- fold change (FC) (BT-474 [47]): 7
- IC50 (AU565): 0.134 µM
- Activity (BT-474 [7]): Dose-dependent effect
- inhibition [39]: 3%
- Activity (MDA-MB-231 [48]): inactive
- IC50 (MCF7 [8]): 1.78 µM
